These results are taken from PMC8280143, “A novel dephosphorylation targeting chimera selectively promoting tau removal in tauopathies” (Signal Transduction and Targeted Therapy, 2021).

Entries after “also recorded” stand apart in the source; their conditions may differ.

One data set deals with human tau (hTau). In words: Western blotting of phospho-tau and total tau in primary neurons with hTau overexpression. Format: cell-based. How it is done:
Lentivirus LV-EF1α-hTau-GFP (3.50E+8 vg/mL) was packaged by OBiO (Shanghai, China) and used for hTau-overexpression (fused with GFP) in cultured primary rat neurons. AAV-CaMKIIα-Cre (diluted to 5.21E + 07 vg/mL) and AAV-EF1α-DIO-mCherry (3.24E + 12 vg/mL) were obtained from BrainVTA (Wuhan, China) and co-injected (1:1 vol/vol) for sparse labeling of dorsal DG neurons. Doxycycline was purchased from Energy Chemical (Shanghai, China). Rabbit polyclonal DEPTAC antibody was prepared by Daian Biotechnology (Wuhan, China). All other reagents including MG132 were purchased from Sigma-Aldrich (USA), unless otherwise specified.
Primary hippocampal neurons were prepared from E12–E15 days SD rat embryos. Briefly, pregnant rats were acutely executed, hippocampus was dissected on ice and gently minced in DME/F12 (Hyclone) then suspended in 0.125% (vol/vol) trypsin solution at 37 °C for 20 min. Enzymatic activity was stopped by fetal bovine serum. Neurons were initially kept in 10% FBS-containing DME/F12 for 4–6 h, and subsequently cultured in Neurobasal (Hyclone) with 2% B27, 1% glutamax and 1% penicillin–streptomycin (Thermo Fisher Scientific) in dishes pre-coated with 100 μg/mL poly-D-lysine. Serum was gradually removed by replacing half of the medium for each time within the following 2 days. Especially, to inhibit the proteasome-dependent proteolysis, the cultured hippocampal neurons were treated with 5 μM MG132 for 5 h before harvest.
Cultured cells or hippocampus tissues were collected on ice, and homogenized with RIPA lysis buffer containing 50 mM Tris-HCl, 100 mM NaCl, 1% Triton X-100, 5 mM EDTA, and 1:100 PMSF, and then centrifuged at 12,000 × g for 20 min. The supernatant was collected for the analysis of soluble proteins. In some experiments, the pellets were further incubated with 8% SDS buffer at 37 °C and then ultrasound for 60 times to reach a complete resuspension for the analysis of insoluble tau. Protein concentration was measured through BCA assays (Thermo Fisher). Equal amount of protein from each sample were separated in SDS-PAGE gels, and then transferred onto nitrocellulose or 0.22 μm polyvinylidene fluoride membranes (Merck Millipore). The membranes were blocked with 5% BSA, and incubated in turn with primary and horseradish peroxidase-conjugated secondary antibodies: pS199-Tau (44734G, Invitrogen, 1:2000), pT205-Tau (11108-1, Signalway, 1:2000), pS396-Tau (11102, Signalway, 1:2000), pS404-Tau (11112, Signalway, 1:2000), AT8 (MN1020, Thermo Fisher, 1:1000), Tau5 (ab80579, Abcam, 1:1000), Tau46 (T9450, Sigma, 1:1000), PP2A-Bα (4953, Cell signaling, 1:1000), Phospho-Ser/Thr (ab17464, Abcam1:1000), Ubiquitin (ab7254, Abcam, 1:1000), MAP2 (AB5622, Millipore, 1:2000), hTau-N368 (a generous gift from Prof. Keqiang Ye, Emory University School of Medicine, 1:1000), DEPTAC (developed by Daian Biotechnology, Wuhan, China, 1:500), β-actin (ab6276, Abcam, 1:2000). HRP-conjugated goat anti-rabbit IgG (A0208, Beyotime, 1:3000), HRP-conjugated goat anti-mouse IgG (A0216, Beyotime, 1:3000). Blots were visualized using ECL luminol reagent (P0018FS, Beyotime), and quantified using ImageJ software.
A general note: In western blotting, separated proteins are transferred to a membrane and probed.

The subject of data set [1] is brain-blood barrier (BBB). In words: Brain-blood barrier penetration after tail vein delivery. Format: in vivo. The following applies: delivered through mouse tail vein; 10 mM; 2-month male C57BL/6 mice. How it is done:
(§1) For 2-month male C57BL/6 mice, 10 mM FITC-labeled or unlabeled-DEPTAC were directly injected through the tail vein or lateral ventricle for the evaluation of BBB-penetrability. For 9-month 3×Tg AD mice or Tau368 (20–30 g body weight), unlabeled-DEPTAC (5 mM, 1 μL for each time) was delivered for once into the lateral ventricle through direct stereotaxic injection, or repeatedly administrated through guiding cannulas (RWD, Shenzhen, China) implanted into the lateral ventricle once every 3 days for a consecutive month to test its dephosphorylation efficiency. Mice were restricted in a custom designed device and stayed awake during drug administration, and sacrificed at 24 h post the single or last DEPTAC administration.

A further data set relates to pS396-tau. In words: pS396-tau immunostaining in the DG of Tau368 mice. Format: in vivo, mouse. The following applies: DEPTAC for a consecutive month after stopping dox; **p < 0.01, n = 4–5 mice. How it is done: as §1
Cultured neurons were fixed with 4% paraformaldehyde for 15 min. For animal experiments, mice were anesthetized with 1% pentobarbital sodium and intracardially perfused with normal saline followed by 4% paraformaldehyde (in 0.1 M phosphate buffer, pH 7.4). Mice brains were removed, post-fixed in 4% PFA for 12 h, and then cryoprotected in 20% and 30% sucrose solutions in turn. Fifty micrometer brain sections were sliced using a cryostat microtome (Leica). […]

The mark [2] stands for this setting: primary rat hippocampal neurons, hTau overexpression.
Setting [3] is: primary rat neurons, lentivirus-mediated hTau overexpression, dose- and time-dependent, *p < 0.01, n = 3.

As for “(1) YQQYQDATADEQG, originates from the porcine β-tubulin 422–434 for recognizing and binding tau proteins.[5],[6] (2) GSGS, a linker for increasing the flexibility of the peptide.[15] (3) KKVAVVRTPPKSP, for recruiting PP2A-Bα,[16] and (4) RRRRRRRR [DEPTAC, DEPhosphorylation TArgeting Chimera; 38 amino acid residues, C185H314N72O56]”, the “effective concentration of DEPTAC” value with human tau (hTau) (discussion, only effective above) was greater than 200 µM. Further, in the data set on human tau (hTau) (discussion, only effective within), the “effective time window post-administration” value is given as no more than 3 days. In the data set with human tau (hTau) (setting [2]), the “concentration of most significant reduction of phospho-tau” value fell in the range of 200 to 300 µM and the “time post administration of most significant reduction of phospho-tau” value is given as no more than 3 days. Moreover, in the data set with human tau (hTau) (setting [3]), the “tau phosphorylation at AT8 (Ser199/Ser202/Thr205) epitope” value was “downregulated; also recorded: promoted tau dephosphorylation”, the “tau phosphorylation at pS199” value is “downregulated; also recorded: promoted tau dephosphorylation”, the “tau phosphorylation at pS396” value is recorded as “downregulated; also recorded: promoted tau dephosphorylation” and the “tau phosphorylation at pS404” value was “downregulated; also recorded: promoted tau dephosphorylation”. For the same substance, in the data set on human tau (hTau) (setting [3]), the “tau phosphorylation at pT205” value is recorded as “downregulated; also recorded: promoted tau dephosphorylation” and the “total tau probed by Tau5 antibody” value is “reduction of total tau; also recorded: reduced total tau”. Moreover, in data set [1], the “brain-blood barrier (BBB) penetrating efficiency” value was “limited”. Besides, the “level of pS396-tau immunostaining in the DG” value in the data set on pS396-tau is “ameliorated”.
